Where two headings read alike, the source gives them in different places. Marks after values point to notes of the source that are not given here. Where a SMILES comes first, the peptide text is derived from it. Bridges are numbered along the chain shown (N, C = ends). [ ]: non-standard residue; d: D form. The star is where a group is joined. X1 = CC[C@H](C)CCCCC(=O)*; Dab = NCC[C@H](N)C(=O)O
Experiments:
[1] = Colistin concentration in luminal intestinal (jejunum and ileum) content, UHPLC-MS/MS; format: in vivo, Ross 308 broiler chickens; details: Ross 308 broiler; for tissue level at time at 54 h: po, jejunum and ileum content, 4 birds per timepoint, read-out: Geometric mean colistin concentration in luminal intestinal content
Procedure: Pharmacokinetic data from in vivo clinical and supra-clinical doses via drinking water and oral gavage were collected as follows. Birds were provided a 14-h photoperiod aligned with onset of dosing (0 h) at 07:00. Birds were housed together upon arrival and separated at 13-days into the following dosing groups 75,000 IU/kg oral gavage (n = 17), 150,000 IU/kg oral gavage (n = 17), 75,000 IU/kg/day drinking water (n = 38), 100,000 IU/kg/day drinking water (n = 38), and 150,000 IU/kg/day drinking water (n = 38), the remaining birds constituted an untreated control group (n = 27) housed in another room. Colistin was administered as a single oral gavage via manual syringe directly into the crop, with the volume calculated based on bird weight immediately prior to dosing. For colistin administration via drinking water, dose was calculated based on average bird weight and water consumption measured the preceding day. It was refreshed every 24 h over the 3-day dosing. The “real” dose received every 24 h was back calculated based on measured water consumption for each dosing period.
For administration via drinking water, 4 birds were sampled at each of the following timepoints pre-dose (0 h), during-dose (12, 36 and 54 h) and post-dose (72, 75, 76, 78, 84 and 96 h). Following oral gavage, 2 birds were sampled at each of the following timepoints 0 h (pre-dose), 1 h, 3 h, 6 h, 12 h, and 24 h (post-dose). Birds were sacrificed through cervical dislocation. The whole small intestine was excised from the duodenum to the large intestine, including the caeca, using individually wrapped and sterilised sets of dissection apparatus were used to avoid cross-contamination between birds. The jejunum and ileum were resected (between proximal ligature after duodenum, and distal ligature before the large intestine) and luminal intestinal content (LIC) was collected as an homogenous sample extracted from the small intestine via peristaltic massage in a proximal-to-distal direction as previously described, with the jejunum/ileum representing the principle compartment for potentially pathogenic E. coli (as compared to the large intestine). All samples were stored at − 80 °C prior to further analysis for no-more than 3 months. Following a previously validated method, colistin was extracted from the matrix using solid-phase extraction with a methanol:water (1:2; v/v) solution. Polymyxin B1 was used as an internal standard. Colistin A and colistin B, (main components of colistin), were separated, detected and measured using ultra-high-performance liquid chromatography coupled with tandem mass spectrometry (UHPLC-MS/MS). Total colistin was calculated as the ratio of the sum of peak areas of colistin A and B over the polymyxin B1 peak area.

[2] = 1-compartment population intestinal PK model of colistin; format: in vivo, broiler chickens; details: for Amount of colistin base transit through the small intestine / Amount of colistin sulphate transit through the small intestine: Eq. (1)
Procedure: Colistin (converted in mg/kg BW) was deposited in a dosing compartment (crop), either as a single bolus input representing an oral-gavage administration or as a daily zero-order input lasting 24 h representing a continuous dose via drinking water. The colistin content pooled jejunum and ileum content (expressed as mg colistin/kg intestinal content) was assumed to be well mixed and was fitted with a one-compartment model. The model was parametrised with 3 parameters: “clearance” that is here an intestinal flow rate (expressed in kg intestinal content/kg BW h^−1), “volume of distribution”, expressed in kg intestinal content/kg BW) and absorption rate constant for extravascular administration (Ka expressed in h^−1).
Between subject variability (BSV) was applied to the clearance (Cl) described using an exponential model, as in the following general equation: Pi=tvP∗exp(ηPi) where tvP is the typical value of the parameter within the population and the random parameter ηPi (eta) represents the deviation from the typical value for the ith individual. Etas are assumed normally distributed with a mean of 0 and a variance of ω^2.
For model evaluation, a significant decrease (> 6.635 corresponding to p < 0.01 for one degree of freedom) in the Bayesian information criterion (BIC) as well as observation of observed vs. population, individual predicted concentrations plots, and visual predictive checks (VPC) were utilized. All concentrations lower than the LOQ of the bioanalytical method (1.1 mg/kg) were considered as censored and managed with the M3 approach and using the Laplace engine by Phoenix™ v8.3.0.5005 (Certara, St. Louis, Missouri). Residual variability was described with a multiplicative error model, providing optimal fit compared to additive or additive/multiplicative models. Residual variability was low due to the single random effect on the clearance considering only a single-point for each bird (due to the nature of the destructive sampling) and the near normal distribution of the Etas. The final population model was evaluated using a Visual Predictive Check (VPC; n = 300) that compares observed with predicted quantiles (10th, 50th and 90th percentiles).

[3] = Colistin activity loss after centrifugation of medium (colispot microbiological assay); format: in vitro ADME; details: colispot method
[4] = tested on: E. coli; details: ref EUCAST; cited from earlier work
Procedure: Colistin is used in chickens for the treatment and metaphylaxis (following confirmation of disease within the flock) of susceptible (ECOFF = 2 mg/L) gastro-intestinal non-invasive E. coli infections. The dose recommended for administration via drinking water is 75,000 IU of colistin (as sulphate) per kg body weight per day for 3–5 consecutive days in Europe. As colistin is not absorbed from the gastrointestinal tract, its effect is exerted locally within the intestinal lumen and the wall of the intestine. As such, there is an opportunity to develop a PK model to predict the gut concentration t ...

[5] = tested on: E. coli 120h_B3_5; mcr-1; details: cited from earlier work
Description: (§1) Supplement 41598_2023_39727_MOESM1_ESM.docx, table 2: Supplementary Table 2: Typical value (tv) and median parameter estimates and 95% confidence intervals of the semi-mechanistic model. | column: Typical value (tv) estimate; Median (Bootstrap) estimate

[6] = tested on: E. coli N100; mcr-negative; details: cited from earlier work
Description: as §1

[7] = tested on: mcr-negative and mcr-positive E. coli isolates; details: cited from earlier work
Description: as §1

[8] = ref Bergen et al.[46], cited from earlier work
Procedure: For the bacteriological response, the cumulative area under the curve of the total bacterial count over 24 h (AUCbact24h) was used. Data were then log10 transformed for regression. As LOQ was set at 100 CFU/mL, it was considered that re-growth would not occur if the total bacterial population decreased to this value. PK/PD indices are conventionally determined using protein unbound (free; f) concentration. Bergen et al.[46] indicated practical equivalence of total and unbound colistin in CAMHB (unbound fractions of 0.96 and 0.95 at 10 and 30 mg/L respectively). Furthermore, as colistin binding ...

[9] = 75,000 IU/kg BW/day for 3-days; cited from earlier work
Description: (§2) In this situation treatment is used to lower the number of resident E. coli in the gastrointestinal tract and control gut overgrowth, in a similar fashion to selective decontamination[37],[38]. As the outcome is not to achieve complete eradication (gut sterilisation), a lower effect than predicted by the PK/PD index critical value may be enough to reduce the bacterial burden within the gastrointestinal tract.

[10] = tested on: E. coli population; details: 75,000 IU/kg BW/day for 3-days; cited from earlier work
Description: as §2

[11] = targeted dose 100,000 IU/kg BW/day
[12] = targeted dose 150,000 IU/kg BW/day
[13] = typical value, 1-compartment intestinal PK model

## CC[C@H](C)CCCCC(=O)N[C@@H](CCN)C(=O)N[C@H](C(=O)N[C@@H](CCN)C(=O)N[C@H]1CCNC(=O)[C@H]([C@@H](C)O)NC(=O)[C@H](CCN)NC(=O)[C@H](CCN)NC(=O)[C@H](CC(C)C)NC(=O)[C@@H](CC(C)C)NC(=O)[C@H](CCN)NC1=O)[C@@H](C)O [colistin, colistin sulphate] (X1-[Dab]T[Dab][Dab][Dab][dL]L[Dab][Dab]T; lactam 4-C)
[1]; 75000 IU/kg, oral gavage 75,000 IU/kg, after 1 h, 2 birds per timepoint
  tissue level at time at 1 h: 21200 ng/g
[1]; 150000 IU/kg, oral gavage 150,000 IU/kg, after 3 h, 2 birds per timepoint
  tissue level at time at 3 h: 45600 ng/g
[1]; 75000 IU/kg/day, 75,000 IU/kg via drinking water
  tissue level at time at 54 h: 4890 ng/g
[1]; 100000 IU/kg/day, 100,000 IU/kg via drinking water
  tissue level at time at 54 h: 6660 ng/g
[1]; 150000 IU/kg/day, 150,000 IU/kg via drinking water
  tissue level at time at 54 h: 8600 ng/g
[2]; secondary parameter
  Overall MTT in digestive tract (mean transit time crop to jejunum): 4.5 h
  ka HL (entry rate half-life): 3.14 h
[2]; targeted dose 75,000 IU/kg BW/day
  Amount of colistin base transit through the small intestine: 70,534 IU/kg BW/day
[2]; [11]
  Amount of colistin base transit through the small intestine: 91,627 IU/kg BW/day
  Amount of colistin sulphate transit through the small intestine: 3.05 mg/kg BW/day
[2]; [12]
  Amount of colistin base transit through the small intestine: 139,935 IU/kg BW/day
  Amount of colistin sulphate transit through the small intestine: 4.66 mg/kg BW/day
[2]; [13]
  Cl (intestinal clearance), estimate (between subject variability %): 29.1 (40.5%) g intestinal content/kg BW/h
  V (intestinal volume of distribution): 5.14 g intestinal content/kg BW
  ka (entry rate constant from crop to jejunum): 0.221 h⁻¹
[3]; from CAMHB, E. coli ATCC 25922 bacterial lawn (microbiological assay, not LCMS)
  Colistin activity loss following centrifugation: 2%
[3]; from IGM (intestinal growth medium), binding to particulate matter, E. coli ATCC 25922 bacterial lawn
  Colistin activity loss following centrifugation: 27%
[4]
  ECOFF: 2 mg/L
[5]; for mcr-positive isolates, calculated from covariate parameter
  F2 (potentiation factor for Kdrug on S1), typical value (tv) estimate: 3.76* scalar
[5]; mcr-positive isolates, Emax (S2) x F2
  Emax (S1), typical value (tv) estimate: 10.13** h^-1
[5]; sub-population S1
  EC50_S1, typical value (tv) estimate: 2.760 µg/mL
[5]; sub-population S2
  EC50_S2, typical value (tv) estimate: 2.174 µg/mL
[6]; for mcr-negative isolates
  F2 (potentiation factor for Kdrug on S1), typical value (tv) estimate: 12.66 scalar
[6]; negative mcr isolates, Emax (S2) x F2
  Emax (S1), typical value (tv) estimate: 34.12** h^-1
[6]; sub-population S1, reproduced PD parameters
  EC50_S1, typical value (tv) estimate: 0.083 µg/mL
[6]; sub-population S2
  EC50_S2, typical value (tv) estimate: 0.115 µg/mL
[7]; both mcr-negative and mcr-positive isolates, maximal increase in kill effect
  Emax (S2), typical value (tv) estimate: 2.69 h⁻¹
[7]; sub-population S1
  gamma_S1 (Hill coefficient), typical value (tv) estimate: 4.09 scalar
[7]; sub-population S2
  gamma_S2 (Hill coefficient), median (bootstrap) estimate: 3.80 scalar
  gamma_S2 (Hill coefficient), typical value (tv) estimate: 3.22 scalar
[8]; in CAMHB at 10 mg/L
  Unbound fraction of colistin: 0.96
[8]; in CAMHB at 30 mg/L
  Unbound fraction of colistin: 0.95
[9]
  Maximum intestinal concentrations: greater than 5 mg/kg
[10]
  Reduction in the E. coli population: ~1000 fold
